Earlier results on one compound are cited in patent publication US20150141549A1, “ANTIBIOTIC PARTICLES AND PRODUCTION METHOD THEREOF” (Japan EnviroChemicals, Ltd., priority 2012, published 2015).

For `CCCCNC(=O)OCC#CI` [IPBC, 3-iodo-2-propynylbutylcarbamate], the water solubility was 150 ppm.
